Results: US9820957B2, “Methods of treating autoimmunity” (IM Therapeutics, Inc., priority 2016, dated 2017)

Tests used:
[1] = test system: HLA-DQ8 antigen presenting cells with gliadin-responsive CD4 T cell receptor (TCR) transductant; test: Inhibition of DQ8 antigen presentation in vitro, gliadin-responsive TCR transductant, IL-2 ELISA; assay type: cell-based; settings: for inhibition of gliadin-responsive TCR transductant (secreted IL-2): 4 hours with peptide and compound, then overnight with transductant; for IC50 compared between the enantiomers: gliadin-responsive TCR transductant
Method: (§1) Inhibition of DQ8 antigen presentation by the D- and L-enantiomers of α-methyldopa was tested and compared in vitro. HLA-DQ8 antigen presenting cells were cultured with a fixed concentration of peptide and a concentration of D- or L-α-methyldopa for 4 hours. TCR transductants were then added to each culture condition and cultured overnight. Secreted IL-2 from the TCR transductant was measured by ELISA for each condition.
(§2) In these figures, 0 represents the TCR transductant response to peptide without the addition of α-methyldopa. No antigen IL-2 responses (negative control) were very low at <2 pg/ml. Results are presented as mean+/− SEM.

[2] = test system: HLA-DQ8 antigen presenting cells with insulin responsive CD4 T cell receptor (TCR) transductant; test: Inhibition of DQ8 antigen presentation in vitro, insulin responsive TCR transductant, IL-2 ELISA; assay type: cell-based; settings: for inhibition of insulin responsive TCR transductant (secreted IL-2): 4 hours with peptide and compound, then overnight with transductant; for IC50 compared between the enantiomers: insulin responsive TCR transductant
Method: as §1, §2

[3] = test system: DQ8-restricted T cell; test: Pharmacodynamics in DQ8 transgenic mice: ex vivo splenocytes stimulating a DQ8-restricted T cell to deamidated gliadin peptide; settings: 4 mg by oral gavage daily for 5 days
Text: Ex vivo splenocytes were used to stimulate a DQ8-restricted T cell to a deamidated gliadin peptide.

[4] = cited from earlier work; for decarboxylation to α-methyl-dopamine in patients: Sjoerdsma et al. 1963, urine of treated patients
[5] = Oral pharmacokinetics in HLA-DQ8 transgenic mice, plasma by HPLC-MS; assay type: in vivo; settings: oral gavage, 4 mg
Method: Separate cohorts of HLA-DQ8 transgenic mice (n=2) were gavaged with a specific dose of L- and D-α-methyldopa, followed by the collection of plasma 90 minutes later. […] Similarly, separate cohorts of mice (n=3) were gavaged with a specific enantiomer (D or L enantiomer) and dose (4 mg by gavage) of α-methyldopa followed by the collection of plasma at baseline, 1, 2, 4, 6, and 18 hours later. […] In these PK studies the Lower Limit of Quantification (LLOQ) was <2.5 ng/ml. Results are presented as mean+/− SEM.

SMILES: C[C@@](N)(Cc1ccc(O)c(O)c1)C(=O)O [D-α-methyldopa, D-α-Methyl-3,4-dihydroxyphenylalanine]
- inhibition of gliadin-responsive TCR transductant (secreted IL-2) [1]: blocked in a dose-dependent manner
- IC50 compared between the enantiomers [1]: statistically similar IC50 values
- inhibition of insulin responsive TCR transductant (secreted IL-2) [2]: blocked in a dose-dependent manner
- IC50 compared between the enantiomers [2]: statistically similar IC50 values
- inhibition of the DQ8-restricted T cell response to deamidated gliadin peptide [3]: inhibition of the T cell response is observed
- response to positive control stimulus (anti-CD3) [3]: not different between the groups
- absorption in humans compared with the other isomer ([4]; Au et al. 1972): much less readily absorbed
- decarboxylation to α-methyl-dopamine in patients [4]: did not decarboxylate
- pharmacologic activity ([4]; prior art view, Du et al., Gillespie et al. 1962): no pharmacologic activity

SMILES: C[C@](N)(Cc1ccc(O)c(O)c1)C(=O)O [L-α-methyldopa, L-α-Methyl-3,4-dihydroxyphenylalanine, reference compound]
- inhibition of gliadin-responsive TCR transductant (secreted IL-2) [1]: blocked in a dose-dependent manner
- IC50 compared between the enantiomers [1]: statistically similar IC50 values
- inhibition of insulin responsive TCR transductant (secreted IL-2) [2]: blocked in a dose-dependent manner
- IC50 compared between the enantiomers [2]: statistically similar IC50 values
- time to maximum plasma concentration (Tmax) compared with the other enantiomer [5]: slightly slower
- inhibition of the DQ8-restricted T cell response to deamidated gliadin peptide [3]: only for the D enantiomer
- response to positive control stimulus (anti-CD3) [3]: not different between the groups
- decarboxylation to α-methyl-dopamine in patients [4]: α-methyl-dopamine did appear in the urine
